Data set [1] in a line: Inhibition of metallo-beta lactamase (unknown origin) by nitrocefin method. More on the design: species or system Bacteria.
Data set [2] concerns Staphylococcus aureus. Description: Antibacterial activity against Staphylococcus aureus 209 incubated for 24 hrs by absorbance based analysis. It is filed as functional, organism-based. Particulars: Staphylococcus aureus, 209, 24 h.
In data set [3] the test system is Staphylococcus aureus. Description: Antibacterial activity against methicillin resistant Staphylococcus aureus 92-1191 by CLSI protocol based assay. It is filed as functional.
In data set [4] the test system is Staphylococcus aureus. Description: Antibacterial activity against methicillin resistant Staphylococcus aureus ATCC BAA-1718 by CLSI protocol based assay. It is filed as functional.
In data set [5] the test system is Staphylococcus aureus. Description: Antibacterial activity against methicillin resistant Staphylococcus aureus ATCC BAA-1717 by CLSI protocol based assay. It counts as functional.
The next data set deals with Plasmodium falciparum. Description: Antimalarial activity against Plasmodium falciparum 3D7 infected in human erythrocytes measured after 72 hrs by absorbance based analysis. As to conditions: 3D7, 72 h. It counts as functional, organism-based.
For data set [6], the system named is Staphylococcus aureus. The data set can be described thus: Antibacterial activity against methicillin resistant Staphylococcus aureus NCTC8173 by CLSI protocol based assay. It is filed as functional.
Data set [7] can be described thus: Cytotoxicity against human HL-60 cells incubated for 48 hrs by WST-8 assay. It is filed as toxicity, cell-based. (In general: Tetrazolium dyes change colour on reduction, which living cells bring about.)
Data set [8] deals with Staphylococcus aureus. Description: Antibacterial activity against methicillin sensitive Staphylococcus aureus FDA209P by CLSI protocol based assay. It is filed as functional.
The nature of data set [9]: Cytotoxicity against human HeLa cells incubated for 48 hrs by WST-8 assay. It is filed as toxicity, cell-based.
For data set [10], the system named is Escherichia coli. Description: Antibacterial activity against Escherichia coli HO141 incubated for 24 hrs by absorbance based analysis. It is filed as functional, organism-based. Particulars: HO141, 24 h.
In data set [11] the test system is Escherichia coli. Description: Potentiation of meropenem induced antibacterial activity against drug-resistant Escherichia coli KB366 expressing metallo-betalactamase by agar disk diffusion method. It is filed as functional, organism-based. (In general: A growth-free zone around the sample is the usual read-out of agar diffusion tests.)

In ChEMBL document CHEMBL5634176, “Expression of Syo_1.56 SARP Regulator Unveils Potent Elasnin Derivatives with Antibacterial Activity” (J Nat Prod, 2024) one finds IC50, MIC and Activity data, which are given here for 14 molecules.

As a reminder, the IC50 is the concentration at which inhibition is half-maximal. Low readings indicate inhibition by little substance, high ones a need for much substance. What is called MIC is the smallest concentration in the dilution series that meets the test's criterion for growth inhibition. A high value points to a less susceptible organism.

≈ marks a conversion by molar mass, not a printed value. Calls of active or inactive are those of the source.

As to `CCCCc1c(CCCC(C)C)oc(=O)c(CCCC)c1O`, the IC50 was greater than 100 µM in data set [1], 1.3 µg/mL (≈ 4.21 µM) with Staphylococcus aureus [2], greater than 10 µg/mL in the data set with Plasmodium falciparum and greater than 10 µg/mL with Escherichia coli [10]. The MIC in the data set with Staphylococcus aureus [3] is 15 µg/mL (≈ 48.6 µM); in the data set on Staphylococcus aureus [4] it was 7.5 µg/mL (≈ 24.3 µM); with Staphylococcus aureus [5], 7.7 µg/mL (≈ 25 µM); against Staphylococcus aureus [6] it was 7.5 µg/mL (≈ 24.3 µM); in the data set with Staphylococcus aureus [8], 15 µg/mL (≈ 48.6 µM). For the same molecule, the IC50 at 48 h in [7] and in data set [9] was greater than 10 µg/mL in each case.
As to `CCCCCC(=O)[C@@H](CCCC)c1oc(=O)c(CCCC)c(O)c1CCCC`, the IC50 in data set [1] was 24.1 µM; with Staphylococcus aureus [2] it was 0.7 µg/mL (≈ 1.78 µM); in the data set on Plasmodium falciparum it was 2.3 µg/mL (≈ 5.86 µM); with Escherichia coli [10], greater than 10 µg/mL. In addition, the MIC against Staphylococcus aureus [3], against Staphylococcus aureus [4], against Staphylococcus aureus [5], against Staphylococcus aureus [6] and against Staphylococcus aureus [8] was 5 µg/mL (≈ 12.7 µM) throughout. Moreover, the IC50 at 48 h in data set [7] and in data set [9] was greater than 10 µg/mL in each case. Also, the result in the data set on Escherichia coli [11] was inactive.
In the case of `CCCCCC(=O)[C@@H](CCCC)c1oc(=O)c(CCC(C)C)c(O)c1CCCC`, the IC50 is 10.8 µM in [1], 0.7 µg/mL (≈ 1.72 µM) in the data set with Staphylococcus aureus [2], 1.3 µg/mL (≈ 3.2 µM) in the data set with Plasmodium falciparum and greater than 10 µg/mL with Escherichia coli [10]. Moreover, the minimal inhibitory concentration (MIC) was 6 µg/mL (≈ 14.8 µM) in the data set on Staphylococcus aureus [3]; 3 µg/mL (≈ 7.38 µM) against Staphylococcus aureus [4]; 6 µg/mL (≈ 14.8 µM) against Staphylococcus aureus [5]; 3 µg/mL (≈ 7.38 µM) against Staphylococcus aureus [6]; 6 µg/mL (≈ 14.8 µM) with Staphylococcus aureus [8]. Besides, the IC50 at 48 h came to 4.9 µg/mL (≈ 12.1 µM) in data set [7] and 7.3 µg/mL (≈ 18 µM) in data set [9]. Besides, the outcome in the data set on Escherichia coli [11] was inactive.
`C[C@@H](O)[C@H]1C(=O)N2C(C(=O)O)=C(S[C@@H]3CN[C@H](C(=O)N(C)C)C3)[C@H](C)[C@H]12` [MEROPENEM]: the MIC was 256 µg/mL (≈ 668 µM) with Staphylococcus aureus [3]; 0.125 µg/mL (≈ 0.326 µM) in the data set on Staphylococcus aureus [4]; 16 µg/mL (≈ 41.7 µM) in the data set on Staphylococcus aureus [5]; 0.125 µg/mL (≈ 0.326 µM) with Staphylococcus aureus [6]; 0.031 µg/mL (≈ 0.0808 µM) against Staphylococcus aureus [8].
As for `C[C@H](CS)C(=O)N1CCC[C@H]1C(=O)O` [CAPTOPRIL], in data set [1], the IC50 is 69 µM.
In the case of `CCCCCC(=O)[C@@H](CCCC)c1oc(=O)c(CC(C)C)c(O)c1CCCC`, the IC50 was greater than 100 µM in [1], 1.6 µg/mL (≈ 4.08 µM) with Staphylococcus aureus [2], greater than 10 µg/mL in the data set with Plasmodium falciparum and greater than 10 µg/mL with Escherichia coli [10]. For the same molecule, the MIC against Staphylococcus aureus [3] stood at 20 µg/mL (≈ 50.9 µM); against Staphylococcus aureus [4], 10 µg/mL (≈ 25.5 µM); in the data set with Staphylococcus aureus [5], 10 µg/mL (≈ 25.5 µM); in the data set on Staphylococcus aureus [6] it was 10 µg/mL (≈ 25.5 µM); against Staphylococcus aureus [8], 10 µg/mL (≈ 25.5 µM). The IC50 at 48 h in data set [7] and in data set [9] was greater than 10 µg/mL throughout.
Regarding `CCCCCC(=O)[C@@H](CCC(C)C)c1oc(=O)c(CCCC)c(O)c1CCCC`, the IC50 in data set [1] is greater than 100 µM; with Staphylococcus aureus [2], 0.5 µg/mL (≈ 1.23 µM); with Plasmodium falciparum it was 6.9 µg/mL (≈ 17 µM); with Escherichia coli [10] it was greater than 10 µg/mL. Also, the MIC against Staphylococcus aureus [3] worked out at 5 µg/mL (≈ 12.3 µM); with Staphylococcus aureus [4], 5 µg/mL (≈ 12.3 µM); in the data set with Staphylococcus aureus [5], 2.5 µg/mL (≈ 6.15 µM); against Staphylococcus aureus [6], 2.5 µg/mL (≈ 6.15 µM); against Staphylococcus aureus [8] it was 5 µg/mL (≈ 12.3 µM). In addition, the IC50 at 48 h in data set [7] and in data set [9] was 9.7 µg/mL (≈ 23.9 µM) throughout.
As to `CCCCc1c([C@H](CCCC)C(=O)CCC(C)C)oc(=O)c(CCCC)c1O`, the IC50 in [1] was greater than 100 µM; in the data set on Staphylococcus aureus [2], 1 µg/mL (≈ 2.55 µM); in the data set with Plasmodium falciparum, 9.4 µg/mL (≈ 23.9 µM); in the data set with Escherichia coli [10], greater than 10 µg/mL. In addition, the MIC against Staphylococcus aureus [3] turned out to be 10 µg/mL (≈ 25.5 µM); with Staphylococcus aureus [4] it was 5 µg/mL (≈ 12.7 µM); against Staphylococcus aureus [5] it was 5 µg/mL (≈ 12.7 µM); with Staphylococcus aureus [6], 5 µg/mL (≈ 12.7 µM); against Staphylococcus aureus [8] it was 10 µg/mL (≈ 25.5 µM). In addition, the IC50 at 48 h in data set [7] and in [9] was greater than 10 µg/mL throughout.
`CCCCc1c(O)c(CCC(C)C)c([C@H](CCCC)C(=O)CCCC(C)C)oc1=O`: the IC50 in data set [1] is greater than 100 µM; in the data set on Staphylococcus aureus [2] it was 0.5 µg/mL (≈ 1.19 µM); in the data set on Plasmodium falciparum, 6.3 µg/mL (≈ 15 µM); in the data set with Escherichia coli [10] it was greater than 10 µg/mL. In addition, the minimum inhibitory concentration (MIC) against Staphylococcus aureus [3], against Staphylococcus aureus [4], in the data set on Staphylococcus aureus [5], against Staphylococcus aureus [6] and in the data set on Staphylococcus aureus [8] was 2.5 µg/mL (≈ 5.94 µM) in each case. The IC50 at 48 h in data set [7] was 5.5 µg/mL (≈ 13.1 µM); in [9] it was 6.3 µg/mL (≈ 15 µM).
On to `CCCCCCc1c(O)c(CCCC)c([C@H](CCCC)C(=O)CCCCC)oc1=O`, for which the IC50 was greater than 100 µM in data set [1], 0.8 µg/mL (≈ 1.9 µM) in the data set with Staphylococcus aureus [2], 8 µg/mL (≈ 19 µM) in the data set on Plasmodium falciparum and greater than 10 µg/mL with Escherichia coli [10]. For the same molecule, the MIC against Staphylococcus aureus [3], in the data set with Staphylococcus aureus [4], with Staphylococcus aureus [5], against Staphylococcus aureus [6] and in the data set with Staphylococcus aureus [8] was 2.5 µg/mL (≈ 5.94 µM) in each case. Further, the figures for the IC50 at 48 h in data set [7] and in [9] were 8.4 µg/mL (≈ 20 µM) and 7.6 µg/mL (≈ 18.1 µM), respectively.
With `CCCCc1c([C@H](CCCC)C(=O)CCCC(C)C)oc(=O)c(CCC(C)C)c1O`, the IC50 was 15.3 µM in [1], 1.1 µg/mL (≈ 2.62 µM) in the data set on Staphylococcus aureus [2], 0.1 µg/mL (≈ 0.238 µM) in the data set with Plasmodium falciparum and greater than 10 µg/mL with Escherichia coli [10]. In addition, the MIC against Staphylococcus aureus [3] was 6 µg/mL (≈ 14.3 µM); against Staphylococcus aureus [4], 3 µg/mL (≈ 7.13 µM); in the data set with Staphylococcus aureus [5] it was 3 µg/mL (≈ 7.13 µM); in the data set with Staphylococcus aureus [6], 3 µg/mL (≈ 7.13 µM); against Staphylococcus aureus [8] it was 3 µg/mL (≈ 7.13 µM). For the same molecule, the IC50 at 48 h in [7] and in data set [9] was 8.4 µg/mL (≈ 20 µM) throughout. Moreover, the result in the data set on Escherichia coli [11] was inactive.
For the molecule `CCCCc1c([C@H](CCC(C)C)C(=O)CCCC(C)C)oc(=O)c(CCCC)c1O`, the IC50 in data set [1] was greater than 100 µM; in the data set with Staphylococcus aureus [2] it was 0.5 µg/mL (≈ 1.19 µM); in the data set with Plasmodium falciparum, 7.7 µg/mL (≈ 18.3 µM); in the data set with Escherichia coli [10], greater than 10 µg/mL. The MIC against Staphylococcus aureus [3] is 5 µg/mL (≈ 11.9 µM); against Staphylococcus aureus [4] it was 2.5 µg/mL (≈ 5.94 µM); in the data set with Staphylococcus aureus [5] it was 2.5 µg/mL (≈ 5.94 µM); in the data set on Staphylococcus aureus [6] it was 2.5 µg/mL (≈ 5.94 µM); in the data set with Staphylococcus aureus [8], 5 µg/mL (≈ 11.9 µM). Moreover, the IC50 at 48 h in data set [7] amounted to 9.3 µg/mL (≈ 22.1 µM); in data set [9], 8.9 µg/mL (≈ 21.2 µM).
With `CCCCCc1oc(=O)c(CCCC)c(O)c1CCCC`, the half-maximal inhibitory concentration (IC50) in data set [1] is greater than 100 µM; in the data set on Staphylococcus aureus [2], 1.3 µg/mL (≈ 4.42 µM); in the data set with Plasmodium falciparum, 1.9 µg/mL (≈ 6.45 µM); with Escherichia coli [10], greater than 10 µg/mL. For the same molecule, the MIC against Staphylococcus aureus [3], against Staphylococcus aureus [4], against Staphylococcus aureus [5], against Staphylococcus aureus [6] and in the data set with Staphylococcus aureus [8] was 15 µg/mL (≈ 50.9 µM) throughout. Further, the IC50 at 48 h in [7] and in data set [9] was greater than 10 µg/mL each time.
Take `CCCCCCCc1oc(=O)c(CCCC)c(O)c1CCCC`: the IC50 in [1] was greater than 100 µM; in the data set on Staphylococcus aureus [2], 2.6 µg/mL (≈ 8.06 µM); with Plasmodium falciparum, 0.1 µg/mL (≈ 0.31 µM); in the data set on Escherichia coli [10], greater than 10 µg/mL. In addition, the MIC against Staphylococcus aureus [3] was found to be 8.1 µg/mL (≈ 25.1 µM); in the data set on Staphylococcus aureus [4], 8.1 µg/mL (≈ 25.1 µM); in the data set on Staphylococcus aureus [5] it was 16 µg/mL (≈ 49.6 µM); with Staphylococcus aureus [6], 8.1 µg/mL (≈ 25.1 µM); in the data set with Staphylococcus aureus [8], 16 µg/mL (≈ 49.6 µM). The IC50 at 48 h in data set [7] and in data set [9] was greater than 10 µg/mL each time.
